From ChEMBL document CHEMBL1155699, “Steroidal alkaloids from the leaves of Sarcococca coriacea of Nepalese origin” (J Nat Prod, 2001)

Experiments:
Cholinesterase = Cholinesterase (Equus caballus, UniProt P81908); assay: Inhibition of horse BChE
Acetylcholinesterase = Acetylcholinesterase (Electrophorus electricus, UniProt O42275); assay: Inhibition of electric eel AChE by Ellman's method
Chain of Acetylcholinesterase (O42275 whole entry): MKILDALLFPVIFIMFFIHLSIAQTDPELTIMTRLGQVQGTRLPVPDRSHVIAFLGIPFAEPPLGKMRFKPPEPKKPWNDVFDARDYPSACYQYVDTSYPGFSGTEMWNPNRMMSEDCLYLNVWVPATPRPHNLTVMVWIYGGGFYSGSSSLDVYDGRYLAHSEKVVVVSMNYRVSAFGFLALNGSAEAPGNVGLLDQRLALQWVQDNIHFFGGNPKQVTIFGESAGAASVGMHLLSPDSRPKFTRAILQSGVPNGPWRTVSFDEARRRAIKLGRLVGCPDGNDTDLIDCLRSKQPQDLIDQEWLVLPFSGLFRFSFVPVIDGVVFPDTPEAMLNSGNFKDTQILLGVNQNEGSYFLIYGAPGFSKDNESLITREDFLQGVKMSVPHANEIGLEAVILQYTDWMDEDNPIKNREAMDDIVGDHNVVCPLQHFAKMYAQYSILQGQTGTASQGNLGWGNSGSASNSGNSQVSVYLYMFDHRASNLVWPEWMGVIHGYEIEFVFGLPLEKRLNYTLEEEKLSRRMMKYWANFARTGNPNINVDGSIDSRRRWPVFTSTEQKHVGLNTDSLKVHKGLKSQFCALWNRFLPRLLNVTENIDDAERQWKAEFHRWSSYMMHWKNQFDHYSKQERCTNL

Chain of Cholinesterase (P81908 whole entry): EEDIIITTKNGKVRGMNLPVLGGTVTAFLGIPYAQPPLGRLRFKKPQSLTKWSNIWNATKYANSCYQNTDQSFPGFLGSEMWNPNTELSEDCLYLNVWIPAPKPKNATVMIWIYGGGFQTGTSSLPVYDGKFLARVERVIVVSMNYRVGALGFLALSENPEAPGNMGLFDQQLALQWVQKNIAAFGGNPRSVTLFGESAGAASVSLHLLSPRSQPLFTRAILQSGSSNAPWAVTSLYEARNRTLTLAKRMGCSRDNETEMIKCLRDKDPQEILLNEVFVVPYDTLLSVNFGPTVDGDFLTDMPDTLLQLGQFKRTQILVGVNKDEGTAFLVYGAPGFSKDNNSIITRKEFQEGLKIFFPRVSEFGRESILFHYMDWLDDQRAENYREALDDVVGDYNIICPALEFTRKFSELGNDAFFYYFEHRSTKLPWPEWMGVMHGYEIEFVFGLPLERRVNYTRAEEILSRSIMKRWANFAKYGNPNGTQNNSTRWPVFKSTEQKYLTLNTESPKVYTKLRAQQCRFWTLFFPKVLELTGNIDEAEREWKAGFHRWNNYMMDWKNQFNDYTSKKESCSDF

Compound | IC50 (Cholinesterase) | IC50 (Acetylcholinesterase)
CC(=O)O[C@H]1[C@@H](NC(=O)C=C(C)C)CC[C@]2(C)[C@H]3CC[C@]4(C)C([C@H](C)N(C)C)=CC[C@H]4[C@@H]3CC[C@@H]12 [VAGANINE D] | 10 µM | 46.9 µM
C/C=C(\C)C(=O)N[C@@H]1[C@H](OC(C)=O)[C@@H]2CC[C@@H]3[C@H](CC[C@]4(C)C([C@H](C)NC)=CC[C@@H]34)[C@@]2(C)C[C@@H]1OC(C)=O [NEPAPAKISTAMINE] | 25 µM | 50.1 µM
